In US8987510B2, “Method for removal of the cyclic diester of a 2-hydroxy alkanoic acid from a vapor” (Purac Biochem BV, priority 2011, dated 2015):

Legend:
[1] = formation of lactide precipitates in circulating aqueous washing solution contacted with lactide-containing vapor
Text: In a first experiment according to the invention, a vapor which contains lactide (i.e. the dehydrated cyclic diester of lactic acid or 2-hydroxy propanoic acid) is guided via vapor inlet pipeline 1 into wet washing column 2 shown in FIG. 1. […] Column 2 comprises packed bed 3, which extends over the whole internal diameter of the column. The column is further equipped with a vapor outlet pipeline 4 and a liquid distributor 5. The vapor travels through packed bed 3 and exits the column via vapor outlet pipeline 4. […] Pump 6 further sucks the vapor containing the cyclic diester, such as lactide, from inlet pipeline 1, through column 2, packed bed 3 and outlet line 4 to an exhaust collection system (not shown).
Column 2 further comprises a liquid storage compartment 7, which contains an aqueous solution. Additional liquid can be introduced in compartment 7 via liquid inlet pipeline 8. […] This solution is circulated through a liquid circulation system comprising liquid circulation pipeline 9, which circulation is powered by liquid pump 10. In practice, the aqueous solution is pumped from the liquid storage compartment 7 via pipeline 9 and heat exchanger 11 to liquid distributor 5. In distributor 5, the alkaline solution is converted from a liquid stream into small droplets. These droplets fall onto and distribute over the upper surface 12 of packed bed 3. Due to gravity, the droplets of the aqueous solution travel through packed bed 3 and fall in the aqueous solution present in storage compartment 7. The size of compartment 7 depends on residence time required under the operation conditions used.
During the whole experiment, the pH of the solution was maintained above 10. This was achieved by the addition of a base. In the present experiment, sodium hydroxide was used as the base. It appeared to be advantageous to add the base continuously, preferably in liquid form. For this experiment, a commercially available stock solution of 50 w/w-% of NaOH in water (Brenntag, technical grade) was used. […]

[2] = solubility behavior of mandelide in neutral, acid and alkaline aqueous solution, visual inspection; assay type: physicochemical; conditions: 2% by weight mandelide, 20° C., stirred
Text: In additional experiments according to the present invention, the lactide was replaced by mandelide, the cyclic diester of 2-hydroxy-2-phenylacetic acid (also known as mandelic acid). The solubility behavior of mandelide in a neutral solution, an acid solution and an alkaline solution has been monitored and mutually compared. For this purpose, the acid aqueous solution was made by dissolving 10% by weight of mandelic acid in water. An alkaline aqueous solution was made by adding NaOH until a pH of 13 was reached. The neutral aqueous solution consisted of pure, non-buffered water. To these three aqueous solutions, an amount of 2% by weight of mandelide was added. All solutions were kept at 20° C. and stirred for several hours. In this period of time, the solubility behavior of the mandelide in the aqueous solutions was followed by visual inspection.

CC1OC(=O)C(C)OC1=O (stereo not drawn) [lactide]
lactide precipitates ([1]; alkaline aqueous solution, above pH 10, NaOH, around 15° C., approximately 15 mbar): no lactide precipitates have been observed
lactide precipitates ([1]; alkaline aqueous solution, pH between 7 and 10): formation of small lactide precipitates can occur
lactide precipitates ([1]; comparative: starting pH approximately 7, no base, pH drops below 4): part of the dissolved lactide precipitates

O=C1OC(c2ccccc2)C(=O)OC1c1ccccc1 (stereo not drawn) [mandelide]
mandelide dissolved after 60 minutes ([2]; acid solution (10% by weight mandelic acid in water)): almost all of the added mandelide was still not dissolved
added mandelide dissolved after 60 minutes ([2]; alkaline solution (NaOH, pH 13)): approximately 50%
mandelide dissolved after 60 minutes ([2]; neutral solution (pure, non-buffered water)): not been dissolved at all
